{"source": "patent US8822505B2", "about": "“Azetidine derivatives” (Hoffmann-La Roche Inc., priority 2012, dated 2014)", "key": {"human Cat S": {"target": "human Cat S (Homo sapiens (Human), UniProt P25774)", "sequence (P25774 115-331)": "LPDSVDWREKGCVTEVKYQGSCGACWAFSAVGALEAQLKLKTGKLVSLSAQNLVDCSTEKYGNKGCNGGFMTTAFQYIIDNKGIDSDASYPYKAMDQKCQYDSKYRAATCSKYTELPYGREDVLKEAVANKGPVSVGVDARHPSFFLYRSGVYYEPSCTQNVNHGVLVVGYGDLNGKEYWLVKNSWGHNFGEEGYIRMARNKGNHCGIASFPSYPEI", "assay": "Cathepsin enzyme inhibition assay (human Cat S)", "type": "biochemical", "details": "enzyme 1 nM, substrate Z-Val-Val-Arg-AMC 20 μM", "procedure": "(§1) Cathepsin Enzyme Inhibition Assay\n(§2) Enzyme activity is measured by observing the increase in fluorescence intensity caused by cleavage of a peptide substrate containing a fluorophore whose emission is quenched in the intact peptide.\n(§3) Assay buffer: 100 mM potassium phosphate pH 6.5, EDTA-Na 5 mM, Triton X-100 0.001%, DTT 5 mM.\n(§4) Enzymes (all at 1 nM): human and mouse Cathepsin S, Cat K, Cat B, Cat L.\n(§5) Substrate (20 μM): Z-Val-Val-Arg-AMC, except for Cat K which uses Z-Leu-Arg-AMC (both from Bachem).\nEnzyme is added to the substance dilutions in 96-well microtitre plates and the reaction is started with substrate. […] IC50 are calculated by standard methods.\nInhibition of human Cat S, mouse Cat S, human Cat K, human Cat B, human Cat L and mouse Cat L have been measured separately."}, "human Cat L": {"target": "human Cat L (Homo sapiens (Human), UniProt P07711)", "sequence (P07711 114-333)": "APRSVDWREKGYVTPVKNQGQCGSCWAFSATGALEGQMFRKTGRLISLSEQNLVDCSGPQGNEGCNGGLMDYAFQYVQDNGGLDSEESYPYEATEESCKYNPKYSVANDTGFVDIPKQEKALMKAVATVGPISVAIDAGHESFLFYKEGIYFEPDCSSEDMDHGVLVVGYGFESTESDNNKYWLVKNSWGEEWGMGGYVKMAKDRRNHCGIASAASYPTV", "assay": "Cathepsin enzyme inhibition assay (human Cat L)", "type": "biochemical", "details": "enzyme 1 nM, substrate Z-Val-Val-Arg-AMC 20 μM", "procedure": "as §1, §2, §3, §4, §5\nExcitation 360 nm, Emission 465 nm.\nEnzyme is added to the substance dilutions in 96-well microtitre plates and the reaction is started with substrate. Fluorescence emission is measured over 20 minutes, during which time a linear increase is observed in the absence of inhibitor. IC50 are calculated by standard methods.\nInhibition of human Cat S, mouse Cat S, human Cat K, human Cat B, human Cat L and mouse Cat L have been measured separately. The results obtained for human Cat S and L for representative compounds of the invention are expressed in the following table in μM."}}, "note": "Counter-ions that a name gives are not always drawn.", "data": [{"compound": "C[C@H](Oc1ccc(S(=O)(=O)[C@@H]2C[C@@H](C(=O)NC3(C#N)CC3)N(C(=O)C3(c4ncc(Cl)cc4F)CCN3)C2)c(Cl)c1)C(F)(F)F", "note": "(stereo partly drawn) [Example 38, (2S,4R)-1-[2-(5-Chloro-3-fluoro-pyridin-2-yl)-azetidine-2-carbonyl]-4-[2-chloro-4-((S)-2,2,2-trifluoro-1-methyl-ethoxy)-benzenesulfonyl]-pyrrolidine-2-carboxylic acid (1-cyano-cyclopropyl)-amide hydrochloride]", "values": [{"measurement": "IC50", "setting": "human Cat S; pH 6.5, hydrochloride", "value": 4.16, "unit": "nM"}, {"measurement": "IC50", "setting": "human Cat L; pH 6.5, hydrochloride", "value": 317, "unit": "nM"}]}, {"compound": "Cc1cc(-c2ccc(S(=O)(=O)[C@@H]3C[C@@H](C(=O)NC4(C#N)CC4)N(C(=O)C4(c5ncc(Br)cc5F)CCN4)C3)c(Cl)c2)ccn1", "note": "(stereo partly drawn) [Example 44, (2S,4R)-1-[2-(5-Bromo-3-fluoro-pyridin-2-yl)-azetidine-2-carbonyl]-4-[2-chloro-4-(2-methyl-pyridin-4-yl)-benzenesulfonyl]-pyrrolidine-2-carboxylic acid (1-cyano-cyclopropyl)-amide hydrochloride]", "values": [{"measurement": "IC50", "setting": "human Cat S; pH 6.5", "value": 2.08, "unit": "nM"}, {"measurement": "IC50", "setting": "human Cat L; pH 6.5", "value": 70.6, "unit": "nM"}]}, {"compound": "CC(C)(C)OC(=O)N1CCC1(C(=O)N1C[C@H](S(=O)(=O)c2ccc(F)cc2Cl)C[C@H]1C(=O)NC1(C#N)CC1)c1ncc(Cl)cc1F", "note": "(stereo partly drawn) [Example 21, 2-[(2S,4R)-4-(2-Chloro-4-fluoro-benzenesulfonyl)-2-(1-cyano-cyclopropylcarbamoyl)-pyrrolidine-1-carbonyl]-2-(5-chloro-3-fluoro-pyridin-2-yl)-azetidine-1-carboxylic acid tert-butyl ester]", "values": [{"measurement": "IC50", "setting": "human Cat S; pH 6.5", "value": 1.04, "unit": "nM"}, {"measurement": "IC50", "setting": "human Cat L; pH 6.5", "value": 1340, "unit": "nM"}]}, {"compound": "COC(=O)N1CC(C(=O)N2C[C@H](S(=O)(=O)c3ccc(O[C@@H](C)C(F)(F)F)cc3Cl)C[C@H]2C(=O)NC2(C#N)CC2)(c2ncc(Br)cc2F)C1", "note": "[Example 51, 3-(5-Bromo-3-fluoro-pyridin-2-yl)-3-[(2S,4R)-4-[2-chloro-4-((S)-2,2,2-trifluoro-1-methyl-ethoxy)-benzenesulfonyl]-2-(1-cyano-cyclopropylcarbamoyl)-pyrrolidine-1-carbonyl]-azetidine-1-carboxylic acid methyl ester]", "values": [{"measurement": "IC50", "setting": "human Cat S; pH 6.5", "value": 2, "unit": "nM"}, {"measurement": "IC50", "setting": "human Cat L; pH 6.5", "value": 7, "unit": "nM"}]}, {"compound": "C[C@H](Oc1ccc(S(=O)(=O)[C@@H]2C[C@@H](C(=O)NC3(C#N)CC3)N(C(=O)C3(c4ncc(Br)cc4F)CCN3)C2)c(Cl)c1)C(F)(F)F", "note": "(stereo partly drawn) [Example 39, (2S,4R)-1-[2-(5-Bromo-3-fluoro-pyridin-2-yl)-azetidine-2-carbonyl]-4-[2-chloro-4-((S)-2,2,2-trifluoro-1-methyl-ethoxy)-benzenesulfonyl]-pyrrolidine-2-carboxylic acid (1-cyano-cyclopropyl)-amide hydrochloride]", "values": [{"measurement": "IC50", "setting": "human Cat S; pH 6.5", "value": 5.46, "unit": "nM"}, {"measurement": "IC50", "setting": "human Cat L; pH 6.5", "value": 26.9, "unit": "nM"}]}, {"compound": "CC(C)(C)OC(=O)N1CCC1(C(=O)N1C[C@H](S(=O)(=O)c2ccc(F)cc2Cl)C[C@H]1C(=O)NC1(C#N)CC1)c1ncc(Cl)cc1F", "note": "(stereo partly drawn) [Example 23, 2-[(2S,4R)-4-(2-Chloro-4-fluoro-benzenesulfonyl)-2-(1-cyano-cyclopropylcarbamoyl)-pyrrolidine-1-carbonyl]-2-(5-chloro-3-fluoro-pyridin-2-yl)-azetidine-1-carboxylic acid tert-butyl ester]", "values": [{"measurement": "IC50", "setting": "human Cat S; pH 6.5", "value": 0.377, "unit": "nM"}, {"measurement": "IC50", "setting": "human Cat L; pH 6.5", "value": 2010, "unit": "nM"}]}, {"compound": "COc1ccc(S(=O)(=O)[C@@H]2C[C@@H](C(=O)NC3(C#N)CC3)N(C(=O)C3(c4ccc(Cl)cn4)CN(C)C3)C2)c(Cl)c1", "note": "[Example 3, (2S,4R)-4-(2-Chloro-4-methoxy-benzenesulfonyl)-1-[3-(5-chloro-pyridin-2-yl)-1-methyl-azetidine-3-carbonyl]-pyrrolidine-2-carboxylic acid (1-cyano-cyclopropyl)-amide]", "values": [{"measurement": "IC50", "setting": "human Cat S; pH 6.5", "value": 1.2, "unit": "nM"}, {"measurement": "IC50", "setting": "human Cat L; pH 6.5", "value": 292, "unit": "nM"}]}, {"compound": "N#CC1(NC(=O)[C@@H]2C[C@@H](S(=O)(=O)c3ccc(OCC(F)(F)F)cc3Cl)CN2C(=O)C2(c3ncc(Br)cc3F)CNC2)CC1", "note": "[Example 19, (2S,4R)-1-(3-(5-Bromo-3-fluoropyridin-2-yl)azetidine-3-carbonyl)-4-(2-chloro-4-(2,2,2-trifluoroethoxy)phenylsulfonyl)-N-(1-cyanocyclopropyl)pyrrolidine-2-carboxamide]", "values": [{"measurement": "IC50", "setting": "human Cat S; pH 6.5", "value": 1.67, "unit": "nM"}, {"measurement": "IC50", "setting": "human Cat L; pH 6.5", "value": 33.8, "unit": "nM"}]}, {"compound": "C[C@H](Oc1ccc(S(=O)(=O)[C@@H]2C[C@@H](C(=O)NC3(C#N)CC3)N(C(=O)C3(c4ncc(Br)cc4F)CN(CC(F)(F)F)C3)C2)c(Cl)c1)C(F)(F)F", "note": "[Example 52, (2S,4R)-1-[3-(5-Bromo-3-fluoro-pyridin-2-yl)-1-(2,2,2-trifluoro-ethyl)-azetidine-3-carbonyl]-4-[2-chloro-4-((S)-2,2,2-trifluoro-1-methyl-ethoxy)-benzenesulfonyl]-pyrrolidine-2-carboxylic acid (1-cyano-cyclopropyl)-amide]", "values": [{"measurement": "IC50", "setting": "human Cat S; pH 6.5", "value": 1, "unit": "nM"}, {"measurement": "IC50", "setting": "human Cat L; pH 6.5", "value": 6, "unit": "nM"}]}]}
